In patent US6864217B2, “Herbicidal compositions with substituted phenylsulfonylureas for controlling weeds in rice” (Hoechst Schering AgrEvo GmbH, priority 1998, dated 2005):

Tests used:
Sagittaria pygmaea [1] = test: Table 14 greenhouse trial, treatment at the 3-4 leaf stage: weed control; format: in vivo; conditions: 21 days after application
Experimental: (§1) Seeds or rhizome pieces of mono- and dicotyledonous weed plants are placed into sandy loam soil in plastic pots, covered with soil and grown in a greenhouse under good growth conditions (temperature, atmospheric humidity, water supply). Weeds which are encountered in the cultivation of rice are cultivated in pots in which the water level is up to 2 cm over the soil surface. Three weeks after sowing, the test plants are treated at the three-leaf stage. The active compound combinations according to the invention, formulated as wettable powders or emulsion concentrates, and, in parallel experiments, the correspondingly formulated individual active compounds are sprayed onto the green parts of the plants at different dosages using an amount of water of 300 to 600 l/ha (converted), and, after about 3 to 4 weeks of the test plants in the greenhouse under optimum growth conditions (temperature, atmospheric humidity, water supply), the effect of the preparations is evaluated visually in comparison to untreated controls. In the case of rice or weeds which are encountered in the cultivation of rice, the active compounds are also added directly to the water for irrigation (application analogous to the so-called granules application) or sprayed onto plants and added to the water for irrigation. The experiments were designed with several, up to five, repetitions. The herbicidal compositions according to the invention also have good herbicidal post-emergence activity against a broad spectrum of economically important weed grasses and broad-leaved weeds.
(§2) Greenhouse trial: Treatment at the 3-4 leaf stage, evaluation 21 days after the application.

Oryza sativa [2] = test: Table 14 greenhouse trial, treatment at the 3-4 leaf stage: rice damage; format: in vivo; conditions: 21 days after application
Experimental: as §1, §2

Echinochloa crusgalli [3] = test: Table 17 field trial, treatment at the 2 leaf stage: weed control; format: in vivo; conditions: 14 days after application
Description: Field trial: Treatment at the 2 leaf stage, evaluation 14 days after the application.

Sagittaria pygmaea [4] = test: Table 13 greenhouse trial, treatment at the 5-6 leaf stage: weed control; format: in vivo; conditions: 20 days after application
Experimental: as §1
(§3) Greenhouse trial: Treatment at the 5-6 leaf stage, evaluation 20 days after the application.

Oryza sativa [5] = test: Table 13 greenhouse trial, treatment at the 5-6 leaf stage: rice damage; format: in vivo; conditions: 20 days after application
Experimental: as §1, §3

Oryza sativa [6] = test: Table 9 greenhouse trial, treatment at the 1-2 leaf stage: rice damage; format: in vivo; conditions: 22 days after application
Experimental: as §1
(§4) Greenhouse trial: Treatment at the 1-2 leaf stage, evaluation 22 days after the application.

Echinochloa crusgalli [7] = test: Table 9 greenhouse trial, treatment at the 1-2 leaf stage: weed control; format: in vivo; conditions: 22 days after application
Experimental: as §1, §4

Scirpus maritimus = test: Table 15 greenhouse trial, treatment at the 2-3 leaf stage: weed control; format: in vivo; conditions: 20 days after application
Experimental: as §1

Oryza sativa [8] = test: Table 15 greenhouse trial, treatment at the 2-3 leaf stage: rice damage; format: in vivo; conditions: 20 days after application
Experimental: as §1

Echinochloa crusgalli [9] = test: Table 4 field trial: weed control; format: in vivo
Experimental: (§7) The examples mentioned below were carried out in the greenhouse, and in some instances, in field trials.

Echinochloa crusgalli [10] = test: Table 18 field trial, treatment at the 1-2 leaf stage: weed control; format: in vivo; conditions: 30 g of ai/ha, 14 days after application
Description: (§5) Field trial: Treatment at the 1-2 leaf stage, evaluation 14 days after the application.

Oryza sativa [11] = test: Table 4 field trial: rice damage
Experimental: as §7

Oryza sativa [12] = test: Table 18 field trial, treatment at the 1-2 leaf stage: rice damage; format: in vivo; conditions: 30 g of ai/ha, 14 days after application
Description: as §5

Scirpus juncoides = test: Table 10 greenhouse trial, treatment at the 1-2 leaf stage: weed control; format: in vivo; conditions: 20 days after application
Experimental: as §1
(§6) Greenhouse trial: Treatment at the 1-2 leaf stage, evaluation 20 days after the application.

Oryza sativa [13] = test: Table 10 greenhouse trial, treatment at the 1-2 leaf stage: rice damage; format: in vivo; conditions: greenhouse trial, 20 days after application
Experimental: as §1, §6

**Q.** What does the source list for `CC1=C(c2ccccc2)C(=O)N(C(C)(C)c2cc(Cl)cc(Cl)c2)CO1` [B73), oxaziclomefone]?
**A.** SAGPY % control (Sagittaria pygmaea [1]; 50 g of ai/ha): 10%; SAGPY % control (Sagittaria pygmaea [1]; 100 g of ai/ha): 15%; SAGPY % control (Sagittaria pygmaea [1]; 200 g of ai/ha): 20%; ORYSW % damage (Oryza sativa [2]; 50 g of ai/ha): 0%; ORYSW % damage (Oryza sativa [2]; 100 g of ai/ha): 0%; ORYSW % damage (Oryza sativa [2]; 200 g of ai/ha): 5%

**Q.** `C#CCOc1cc(-n2nc(C(C)(C)C)oc2=O)c(Cl)cc1Cl` [B51), 5-tert-butyl-3-[2,4-dichloro-5-(prop-2-ynyloxy)-phenyl]-1,3,4-oxadiazol-2(3H)-one] was tested. Which ECHCG % control (Echinochloa crusgalli [3]; 25 g of ai/ha) did it give?
**A.** 37%

**Q.** And the ECHCG % control (Echinochloa crusgalli [3]; 50 g of ai/ha)?
**A.** 63%

**Q.** What about the ECHCG % control (Echinochloa crusgalli [3]; 100 g of ai/ha) of the same molecule?
**A.** 63%

**Q.** And the ECHCG % control (Echinochloa crusgalli [3]; 200 g of ai/ha)?
**A.** 80%

**Q.** For `CCN(C(=O)n1nnn(-c2ccccc2Cl)c1=O)C1CCCCC1` [B17), 4-(2-chlorophenyl)-5-oxo-4,5-dihydro-tetrazole-1-carboxylic acid cyclohexyl-ethyl-amide], which SAGPY % control (Sagittaria pygmaea [4]; 50 g of ai/ha) is on record?
**A.** 0%

**Q.** And the SAGPY % control (Sagittaria pygmaea [4]; 100 g of ai/ha)?
**A.** 40%

**Q.** And the SAGPY % control (Sagittaria pygmaea [4]; 200 g of ai/ha)?
**A.** 80%

**Q.** What about the ORYSW % damage (Oryza sativa [5]; 50 g of ai/ha) of the same molecule?
**A.** 0%

**Q.** What about the ORYSW % damage (Oryza sativa [5]; 100 g of ai/ha) of the same molecule?
**A.** 0%

**Q.** And the ORYSW % damage (Oryza sativa [5]; 200 g of ai/ha)?
**A.** 0%

**Q.** Which ORYSW % damage (Oryza sativa [6]; 19 g of ai/ha) does the source give for `COc1cc(OC)nc(Oc2cccc(Oc3nc(OC)cc(OC)n3)c2C(=O)O)n1` [B48), sodium 2,6-bis[(4,6-dimethoxypyrimidin-2-yl)oxy]-benzoate] here?
**A.** 0%

**Q.** And the ORYSW % damage (Oryza sativa [6]; 38 g of ai/ha)?
**A.** 0%

**Q.** And the ORYSW % damage (Oryza sativa [6]; 75 g of ai/ha)?
**A.** 5%

**Q.** What about the ECHCG % control (Echinochloa crusgalli [7]; 19 g of ai/ha) of the same molecule?
**A.** 15%

**Q.** And the ECHCG % control (Echinochloa crusgalli [7]; 38 g of ai/ha)?
**A.** 30%

**Q.** And the ECHCG % control (Echinochloa crusgalli [7]; 75 g of ai/ha)?
**A.** 40%

**Q.** How did the SCIMA % control (Scirpus maritimus; 5 g of ai/ha) turn out when `COc1cc(OC)nc(NC(=O)NS(=O)(=O)c2c(-c3nnn(C)n3)cnn2C)n1` [B64), azimsulfuron] was run?
**A.** 78%

**Q.** What about the SCIMA % control (Scirpus maritimus; 9 g of ai/ha) of the same molecule?
**A.** 80%

**Q.** What about the SCIMA % control (Scirpus maritimus; 18 g of ai/ha) of the same molecule?
**A.** 83%

**Q.** And the SCIMA % control (Scirpus maritimus; 37 g of ai/ha)?
**A.** 85%

**Q.** And the ORYSW % damage (Oryza sativa [8]; 5 g of ai/ha)?
**A.** 3%

**Q.** And the ORYSW % damage (Oryza sativa [8]; 9 g of ai/ha)?
**A.** 8%

**Q.** And the ORYSW % damage (Oryza sativa [8]; 18 g of ai/ha)?
**A.** 10%

**Q.** What about the ORYSW % damage (Oryza sativa [8]; 37 g of ai/ha) of the same molecule?
**A.** 10%

**Q.** How did the SAGPY % control (Sagittaria pygmaea [1]; 250 g of ai/ha) turn out when `O=C(O)c1c(Cl)ccc2cc(Cl)cnc12` [B13), 3,7-dichloro-8-quinolincarboxylic acid] was run?
**A.** 30%

**Q.** What about the SAGPY % control (Sagittaria pygmaea [1]; 500 g of ai/ha) of the same molecule?
**A.** 30%

**Q.** And the SAGPY % control (Sagittaria pygmaea [1]; 1000 g of ai/ha)?
**A.** 30%

**Q.** What about the ORYSW % damage (Oryza sativa [2]; 250 g of ai/ha) of the same molecule?
**A.** 0%

**Q.** And the ORYSW % damage (Oryza sativa [2]; 500 g of ai/ha)?
**A.** 0%

**Q.** And the ORYSW % damage (Oryza sativa [2]; 1000 g of ai/ha)?
**A.** 0%

**Q.** Which results are given for `C[C@@H](Oc1ccc(Oc2nc3ccc(Cl)cc3o2)cc1)C(=O)O` [B20), (R)-2-[4-(6-chloro-1,3-benzoxazol-2-yloxy)phenoxy]-propionic acid]?
**A.** ECHCG % control (Echinochloa crusgalli [9]; 10 g of ai/ha): 0%; ECHCG % control (Echinochloa crusgalli [9]; 20 g of ai/ha): 0%; ECHCG % control (Echinochloa crusgalli [10]): 75%; ORYSW % damage (Oryza sativa [11]; 10 g of ai/ha): 0%; ORYSW % damage (Oryza sativa [11]; 20 g of ai/ha): 0%; ORYSW % damage (Oryza sativa [12]): 0%

**Q.** What does the source list for `COc1cc(OC)nc(NC(=O)NS(=O)(=O)Cc2ccccc2C(=O)O)n1` [B58), 2-[[[[[(4,6-dimethoxy-2-pyrimidinyl)amino]carbonyl]-amino]sulfonyl]methyl]benzoic acid]?
**A.** SCIJU % control (Scirpus juncoides; 7.5 g of ai/ha): 35%; SCIJU % control (Scirpus juncoides; 15 g of ai/ha): 40%; SCIJU % control (Scirpus juncoides; 30 g of ai/ha): 55%; SCIJU % control (Scirpus juncoides; 60 g of ai/ha): 60%; ORYSW % damage (Oryza sativa [13]; 7.5 g of ai/ha): 0%; ORYSW % damage (Oryza sativa [13]; 15 g of ai/ha): 0%; ORYSW % damage (Oryza sativa [13]; 30 g of ai/ha): 2%; ORYSW % damage (Oryza sativa [13]; 60 g of ai/ha): 5%
